Assay: Inhibitory activity against PRPP synthetase

Compound: Nc1ncnc2ncn(CCOCP(=O)(O)O)c12 [[2-(6-Amino-purin-7-yl)-ethoxymethyl]-phosphonic acid]
- Ki: 17 mM
